Test results taken from article PMC5011342, “A high throughput drug screening assay to identify compounds that promote oligodendrocyte differentiation using acutely dissociated and purified oligodendrocyte precursor cells” (BMC Research Notes, 2016).
Where two headings read alike, the source gives them in different places.

Legend:
expanded OPCs = assay: cells; conditions: for viability at 0.1 µM / viability at 1 µM / viability at 10 µM: Rattus norvegicus, 72 h
How it was run: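 Expanded OPCs seeded at 10,000 cells/well in differentiation media, then exposed to NCC library compounds at 10, 1 and 0.1 µM (quadruplicate, 0.1% DMSO) for three days. Viability read as alamarBlue fluorescence (560/590 nm) after 4 h at 37 °C; tunicamycin 5 ng/ml served as toxicity control.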

[1] = system: acutely dissociated and purified rat OPCs; assay: Acute OL differentiation assay (MBP expression/cell, immunofluorescent image quantification); format: cell-based; conditions: sheet "All OLga data"
How it was run: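 Oligodendrocyte precursor cells were enriched from P6-P7 Sprague–Dawley rat brains by immunopanning (RAN-2 and GalC depletion, O4 selection), plated at 5000 cells/well in serum-free, mitogen-free differentiation media on PDL/laminin 96-well view plates, centrifuged at 200×g, and pre-incubated 1–2 h before test compounds were added in quadruplicate. On DIV4, cells were fixed, stained for MBP and DAPI, imaged automatically, and MBP expression per cell was quantified.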

[2] = alamarBlue viability, NCC library compound at 0.1 µM, sheet "All Tox data"
[3] = alamarBlue viability, NCC library compound at 1 µM, sheet "All Tox data"
[4] = alamarBlue viability, NCC library compound at 10 µM, sheet "All Tox data"
[5] = test compound at 2 uM, NCC library screen, relative to quetiapine
[6] = test compound at 10 uM, NCC library screen, relative to quetiapine
[7] = alamarBlue viability of expanded OPCs, compound at 0.1 µM, relative to DMSO control
[8] = alamarBlue viability of expanded OPCs, compound at 1 µM, relative to DMSO control
[9] = alamarBlue viability of expanded OPCs, compound at 10 µM, relative to DMSO control
[10] = Rattus norvegicus, test compound at 2 uM, MBP expression relative to quetiapine, NCC library screen, read-out: 2 uM (% Quet)
[11] = Rattus norvegicus, test compound at 10 uM, MBP expression relative to quetiapine, NCC library screen, read-out: 10 uM (% Quet)
[12] = read-out: 0.1 µM (% DMSO), alamarBlue viability, NCC library compound at 0.1 µM, sheet "All Tox data"
[13] = read-out: 1 µM (% DMSO), alamarBlue viability, NCC library compound at 1 µM, sheet "All Tox data"
[14] = read-out: 10 µM (% DMSO), alamarBlue viability, NCC library compound at 10 µM, sheet "All Tox data"
[15] = Rattus norvegicus, 2 uM test compound, relative to quetiapine, read-out: OL differentiation, 2 uM (% Quet)
[16] = Rattus norvegicus, test compound at 2 uM, NCC library screen, relative to quetiapine, read-out: 2 uM (% Quet)
[17] = Rattus norvegicus, test compound at 10 uM, NCC library screen, relative to quetiapine, read-out: 10 uM (% Quet)
[18] = read-out: 0.1 µM (% DMSO), alamarBlue viability of expanded OPCs, compound at 0.1 µM, sheet All Tox data
[19] = read-out: 1 µM (% DMSO), alamarBlue viability of expanded OPCs, compound at 1 µM, sheet All Tox data
[20] = read-out: 10 µM (% DMSO), alamarBlue viability of expanded OPCs, compound at 10 µM, sheet All Tox data
[21] = Rattus norvegicus, 10 uM test compound, relative to quetiapine, read-out: OL differentiation, 10 uM (% Quet)

## Nc1ccc2cn[nH]c2c1 [6-Aminoindazole]
Expanded OPCs; [2]
  0.1 µM (% DMSO): 85.3 % DMSO
Expanded OPCs; [3]
  1 µM (% DMSO): 87.5 % DMSO
Expanded OPCs; [4]
  10 µM (% DMSO): 73.6 % DMSO
[1]; [5]
  2 uM (% Quet): -23.3 % Quet
[1]; [6]
  10 uM (% Quet): -40.9 % Quet

## CCC[C@@H]1C[C@@H](C(=O)N[C@@H]([C@H]2O[C@H](SC)[C@H](O)[C@@H](O)[C@H]2O)[C@@H](C)O)N(C)C1 [Lincomycin]
Expanded OPCs; [7]
  0.1 µM (% DMSO): 93.6 % DMSO
Expanded OPCs; [8]
  1 µM (% DMSO): 94.1 % DMSO
Expanded OPCs; [9]
  10 µM (% DMSO): 87.7 % DMSO
[1]; [10]
  activation at 2 µM: 12.6%
[1]; [11]
  activation at 10 µM: -2.9%

## O=C1Nc2ccccc2/C1=C1/Nc2ccccc2C1=O [Indirubin]
Expanded OPCs; [12]
  viability at 0.1 µM: 97.6%
Expanded OPCs; [13]
  viability at 1 µM: 78.2%
Expanded OPCs; [14]
  viability at 10 µM: 46.3%
[1]; Rattus norvegicus, 0.4 uM test compound, relative to quetiapine, read-out: OL differentiation, 0.4 uM (% Quet)
  activation at 0.4 µM: 26%
[1]; [15]
  activation at 2 µM: 108%

## C[C@H](CS)C(=O)N1CCC[C@H]1C(=O)O [Captopril]
Expanded OPCs; [12]
  viability at 0.1 µM: 90.7%
Expanded OPCs; [13]
  viability at 1 µM: 93.2%
Expanded OPCs; [14]
  viability at 10 µM: 99.1%
[1]; [16]
  activation at 2 µM: 8%
[1]; [17]
  activation at 10 µM: 8.4%

## CCOC(=O)C1=C(C)NC(C)=C(C(=O)OC)C1c1cccc(Cl)c1Cl (stereo not shown) [Felodipine]
Expanded OPCs; [7]
  0.1 µM (% DMSO): 85.5 % DMSO
Expanded OPCs; [8]
  1 µM (% DMSO): 62.8 % DMSO
Expanded OPCs; [9]
  10 µM (% DMSO): 18.3 % DMSO
[1]; Rattus norvegicus, test compound at 0.08 uM, MBP expression relative to quetiapine, NCC library screen, read-out: 0.08 uM (% Quet)
  activation at 0.08 µM: -8.1%
[1]; Rattus norvegicus, test compound at 0.4 uM, MBP expression relative to quetiapine, NCC library screen, read-out: 0.4 uM (% Quet)
  activation at 0.4 µM: 0.8%

## Cc1occc(=O)c1O [Maltol]
Expanded OPCs; [12]
  viability at 0.1 µM: 83.5%
Expanded OPCs; [13]
  viability at 1 µM: 91.1%
Expanded OPCs; [14]
  viability at 10 µM: 84.9%
[1]; [16]
  activation at 2 µM: -7%
[1]; [17]
  activation at 10 µM: 8.2%

## C=C(CC)C(=O)c1ccc(OCC(=O)O)c(Cl)c1Cl [Ethacrynic Acid]
Expanded OPCs; [7]
  0.1 µM (% DMSO): 90.2 % DMSO
Expanded OPCs; [8]
  1 µM (% DMSO): 80.6 % DMSO
Expanded OPCs; [9]
  10 µM (% DMSO): 11.2 % DMSO
[1]; Rattus norvegicus, test compound at 0.4 uM, NCC library screen, relative to quetiapine, read-out: 0.4 uM (% Quet)
  activation at 0.4 µM: -23.7%
[1]; [16]
  activation at 2 µM: -192%

## HTMT
Expanded OPCs; [2]
  0.1 µM (% DMSO): 71.6 % DMSO
Expanded OPCs; [3]
  1 µM (% DMSO): 71.0 % DMSO
Expanded OPCs; [4]
  10 µM (% DMSO): 63.6 % DMSO
[1]; [5]
  2 uM (% Quet): -16.4 % Quet
[1]; [6]
  10 uM (% Quet): 21.8 % Quet

## C=C[C@H]1C[N@@]2CC[C@H]1C[C@H]2[C@H](O)c1ccnc2ccc(OC)cc12 [Quinine]
Expanded OPCs; [7]
  0.1 µM (% DMSO): 93.4 % DMSO
Expanded OPCs; [8]
  1 µM (% DMSO): 87.0 % DMSO
[1]; [10]
  activation at 2 µM: -22.9%
[1]; [11]
  activation at 10 µM: -65.5%

## CC(C)NCC(O)COc1ccc(COCCOC(C)C)cc1 (stereo not shown) [Bisoprolol]
Expanded OPCs; [18]
  viability at 0.1 µM: 91.3%
Expanded OPCs; [19]
  viability at 1 µM: 89.8%
Expanded OPCs; [20]
  viability at 10 µM: 96.5%
[1]; [15]
  activation at 2 µM: -18.8%
[1]; [21]
  activation at 10 µM: -17.3%

## CCCCC(=O)N(Cc1ccc(-c2ccccc2-c2nnn[nH]2)cc1)[C@H](C(=O)O)C(C)C [Valsartan]
Expanded OPCs; [12]
  viability at 0.1 µM: 86.6%
Expanded OPCs; [13]
  viability at 1 µM: 84%
Expanded OPCs; [14]
  viability at 10 µM: 82.9%
[1]; [15]
  activation at 2 µM: 10.7%
[1]; [21]
  activation at 10 µM: -1%

## CC(C(=O)O)c1ccc(-c2ccccc2)c(F)c1 (stereo not shown) [Flurbiprofen]
Expanded OPCs; [18]
  viability at 0.1 µM: 95.9%
Expanded OPCs; [12]
  viability at 0.1 µM: 91.1%
Expanded OPCs; [19]
  viability at 1 µM: 103%
Expanded OPCs; [13]
  viability at 1 µM: 88.1%
Expanded OPCs; [20]
  viability at 10 µM: 91.2%
Expanded OPCs; [14]
  viability at 10 µM: 89.4%
[1]; [15]
  activation at 2 µM: -3.6%
[1]; [21]
  activation at 10 µM: 24.6%
[1]; [16]
  activation at 2 µM: 1.8%
[1]; [17]
  activation at 10 µM: -6.1%

## CN1C(=O)COc2c(C(=O)NC3CN4CCC3CC4)cc(Cl)cc21 (stereo not shown) [Azasetron]
Expanded OPCs; [12]
  viability at 0.1 µM: 94.2%
Expanded OPCs; [13]
  viability at 1 µM: 80.9%
Expanded OPCs; [14]
  viability at 10 µM: 76.8%
[1]; [15]
  activation at 2 µM: -8.9%
[1]; [21]
  activation at 10 µM: -16.8%

## COc1ccc2[nH]cc(CCN)c2c1 [5-Methoxytryptamine]
Expanded OPCs; [12]
  viability at 0.1 µM: 82.9%
Expanded OPCs; [13]
  viability at 1 µM: 83.6%
Expanded OPCs; [14]
  viability at 10 µM: 78.8%
[1]; [16]
  activation at 2 µM: 2.6%
[1]; [17]
  activation at 10 µM: 4.2%

## Nc1nc(F)nc2c1ncn2[C@@H]1O[C@H](CO)[C@@H](O)[C@@H]1O [Fludarabine]
Expanded OPCs; [7]
  0.1 µM (% DMSO): 91.2 % DMSO
Expanded OPCs; [8]
  1 µM (% DMSO): 88.7 % DMSO
Expanded OPCs; [9]
  10 µM (% DMSO): 77.9 % DMSO
[1]; [10]
  activation at 2 µM: 18.7%
[1]; [11]
  activation at 10 µM: -12.6%
